# Test results taken from patent publication US11154058B2, “Fungicidal compositions” (SYNGENTA PARTICIPATIONS AG, priority 2017, dated 2021).
# Columns and labels:
# [1] = system: Puccinia recondita f. Sp. Tritici; assay: Puccinia recondita f. sp. tritici / wheat / leaf disc preventative (brown rust); assay type: in vivo; settings: foliar, compared to untreated control, read-out: disease control
# Protocol: Puccinia recondita f. Sp. Tritici/Wheat/Leaf Disc Preventative (Brown Rust) Wheat leaf segments cv. Kanzler were placed on agar in multiwell plates (24-well format) and sprayed with the formulated test compound or mixture composition diluted in water. The leaf disks were inoculated with a spore suspension of the fungus 1 day after application. The inoculated leaf segments were incubated at 19° C. and 75% rh under a light regime of 12 h light/12 h darkness in a climate cabinet and the activity of a compound or mixture composition was assessed as percent disease control compared to untreated when an appropriate level of disease damage appears in untreated check leaf segments (7-9 days after application).
# [2] = system: Blumeria graminis f. Sp. Tritici (Erysiphe graminis f. Sp. Tritici); assay: Blumeria graminis f. sp. tritici / wheat / leaf disc preventative (powdery mildew on wheat); assay type: in vivo; settings: foliar, compared to untreated control, read-out: disease control
# Protocol: Blumeria graminis f. Sp. Tritici (Erysiphe graminis f. Sp. Tritici)/Wheat/Leaf Disc Preventative (Powdery Mildew on Wheat)
# Wheat leaf segments cv. Kanzler were placed on agar in a multiwell plate (24-well format) and sprayed with the formulated test compound or mixture composition diluted in water. The leaf disks were inoculated by shaking powdery mildew infected plants above the test plates 1 day after application. The inoculated leaf disks were incubated at 20° C. and 60% rh under a light regime of 24 h darkness followed by 12 h light/12 h darkness in a climate chamber and the activity of a compound or mixture composition was assessed as percent disease control compared to untreated when an appropriate level of disease damage appears on untreated check leaf segments (6-8 days after application).
# [3] = system: Puccinia recondita f. Sp. Tritici; assay: Puccinia recondita f. sp. tritici / wheat / leaf disc curative (brown rust); assay type: in vivo; settings: foliar, compared to untreated control, read-out: disease control
# Protocol: Puccinia recondita f. Sp. Tritici/Wheat/Leaf Disc Curative (Brown Rust)
# Wheat leaf segments cv. Kanzler are placed on agar in multiwell plates (24-well format). The leaf segments are inoculated with a spore suspension of the fungus. Plates were stored in darkness at 19° C. and 75% rh. The formulated test compound or mixture composition diluted in water was applied 1 day after inoculation. The leaf segments were incubated at 19° C. and 75% rh under a light regime of 12 h light/12 h darkness in a climate cabinet and the activity of a compound or mixture composition was assessed as percent disease control compared to untreated when an appropriate level of disease damage appears in untreated check leaf segments (6-8 days after application).
# Phakopsora pachyrhizi = Phakopsora pachyrhizi / soybean / preventative (soybean rust); assay type: in vivo; settings: foliar, soybean leaf disc, compared to untreated control
# Protocol: Phakopsora pachyrhizi/Soybean/Preventative (Soybean Rust) Soybean leaf disks are placed on water agar in multiwell plates (24-well format) and sprayed with the formulated test compound diluted in water. One day after application leaf discs are inoculated by spraying a spore suspension on the lower leaf surface. After an incubation period in a climate cabinet of 24-36 hours in darkness at 20° C. and 75% rh leaf disc are kept at 20° C. with 12 h light/day and 75% rh. The activity of a compound is assessed as percent disease control compared to untreated when an appropriate level of disease damage appears in untreated check leaf disks (12-14 days after application).
Compound,pest or weed control at 200 ppm [1] [%],melting point [°C],pest or weed control at 200 ppm [2] [%],pest or weed control at 200 ppm [3] [%],pest or weed control at 200 ppm (Phakopsora pachyrhizi) [%]
"CCN(C)/C=N/c1cc(OC)c(C(O)(c2ccccc2C)C(F)(F)F)cc1C (centres unmarked) [Q.009, N-ethyl-N′-[5-methoxy-2-methyl-4-[2,2,2-trifluoro-1-hydroxy-1-(o-tolyl)ethyl]phenyl]-N-methyl-formamidine]",≥ 80,115 to 117,≥ 80,≥ 80,≥ 80
"CCN(C)/C=N/c1cc(OC)c(C(O)(c2cc(F)cc(F)c2)C(F)(F)F)cc1C (centres unmarked) [Q.010, N′-[4-[1-(3,5-difluorophenyl)-2,2,2-trifluoro-1-hydroxy-ethyl]-5-methoxy-2-methyl-phenyl]-N-ethyl-N-methyl-formamidine]",≥ 80,107 to 108,≥ 80,≥ 80,≥ 80
"CCN(C)/C=N/c1cc(OC)c(C(O)(COCC2CCC2)C(F)(F)F)cc1C (centres unmarked) [Q.004, N′-[4-[1-(cyclobutylmethoxymethyl)-2,2,2-trifluoro-1-hydroxy-ethyl]-5-methoxy-2-methyl-phenyl]-N-ethyl-N-methyl-formamidine]",≥ 80,–,≥ 80,≥ 80,≥ 80
"C=C(C)CC(O)(c1cc(C)c(/N=C/N(C)C(C)C)cc1OC)C(F)(F)F (centres unmarked) [Q.006, N′-[4-[1-hydroxy-3-methyl-1-(trifluoromethyl)but-3-enyl]-5-methoxy-2-methyl-phenyl]-N-isopropyl-N-methyl-formamidine]",≥ 80,90 to 95,≥ 80,≥ 80,≥ 80
"CCCCOCC(O)(c1cc(C)c(/N=C/N(C)CC)cc1OC)C(F)(F)F (centres unmarked) [Q.002, N′-[4-[1-(butoxymethyl)-2,2,2-trifluoro-1-hydroxy-ethyl]-5-methoxy-2-methyl-phenyl]-N-ethyl-N-methyl-formamidine]",≥ 80,–,≥ 80,≥ 80,≥ 80
"COc1cc(/N=C/N(C)C(C)C)c(C)cc1C(O)(c1ccccc1)C(F)(F)F (centres unmarked) [Q.008, N-isopropyl-N′-[5-methoxy-2-methyl-4-(2,2,2-trifluoro-1-hydroxy-1-phenyl-ethyl)phenyl]-N-methyl-formamidine]",≥ 80,110 to 111,–,≥ 80,≥ 80
"CCO/N=C(\C)CC(O)(c1cc(C)c(/N=C/N(C)CC)cc1OC)C(F)(F)F (centres unmarked) [Q.001, N′-[4-[(3E)-3-ethoxyimino-1-hydroxy-1-(trifluoromethyl)butyl]-5-methoxy-2-methyl-phenyl]-N-ethyl-N-methyl-formamidine]",≥ 80,–,≥ 80,≥ 80,≥ 80
"CCCCC(O)(c1cc(C)c(/N=C/N(C)C(C)C)cc1OC)C(F)(F)F (centres unmarked) [Q.007, N′-[4-[1-hydroxy-1-(trifluoromethyl)pentyl]-5-methoxy-2-methyl-phenyl]-N-isopropyl-N-methyl-formamidine]",≥ 80,–,≥ 80,≥ 80,≥ 80
"CCN(C)/C=N/c1cc(OC)c(C(O)(COC2CCCC2)C(F)(F)F)cc1C (centres unmarked) [Q.005, N′-[4-[1-(cyclopentoxymethyl)-2,2,2-trifluoro-1-hydroxy-ethyl]-5-methoxy-2-methyl-phenyl]-N-ethyl-N-methyl-formamidine]",–,–,–,–,≥ 80
"COc1cc(/N=C/N(C)C(C)C)c(C)cc1C(O)(C1CC1)C(F)(F)F (centres unmarked) [Q.003, N′-[4-(1-cyclopropyl-2,2,2-trifluoro-1-hydroxy-ethyl)-5-methoxy-2-methyl-phenyl]-N-isopropyl-N-methyl-formamidine]",≥ 80,90 to 93,≥ 80,≥ 80,≥ 80
